Test results taken from patent US9675073B2, “Insecticidal compounds based on N-arylsulfanylmethylcarboxamidearylthiosulfonamides derivatives” (Syngenta Participations AG, priority 2012, dated 2017).
Read-outs that look alike come from different tables or passages of the source.

How the values were obtained:
Format in all cases: in vivo
[1] = tested on: Diabrotica balteata (Corn Root Worm); assay: Diabrotica balteata L2 larvae on treated artificial diet; conditions: 120 h, application rate 200 ppm, 5 days after infestation
Experimental: (§1) 24-well microtiter plates with artificial diet were treated with aqueous test solutions prepared from 10,000 ppm DMSO stock solutions by pipetting. After drying, the plates were infested with L2 larvae (6 to 10 per well). The samples were assessed for mortality 5 days after infestation.

[2] = tested on: Plutella xylostella (Diamond Back Moth); assay: Plutella xylostella L2 larvae on treated artificial diet; conditions: 120 h
Experimental: 24-well microtiter plates with artificial diet were treated with aqueous test solutions prepared from 10,000 ppm DMSO stock solutions by pipetting. After drying, the plates were infested with L2 larvae (10 to 15 per well). The samples were assessed for mortality 5 days after infestation.

[3] = tested on: Myzus persicae (Green Peach Aphid); assay: Myzus persicae sucrose solution feeding test through Parafilm; conditions: 120 h, test rate 12 ppm, 5 days after infestation
Experimental: Myzus persicae (Green Peach Aphid)
Test compounds from 10,000 ppm DMSO stock solutions were applied by pipette into 24-well microtiter plates and mixed with sucrose solution. The plates were closed with a stretched Parafilm. A plastic stencil with 24 holes was placed onto the plate and infested pea seedlings were placed directly on the Parafilm. The infested plate was closed with a gel blotting paper and another plastic stencil and then turned upside down. The samples were assessed for mortality 5 days after infestation.

[4] = tested on: Tetranychus urticae (Two-Spotted Spider Mite); assay: Tetranychus urticae bean leaf disc spray test; conditions: foliar, 192 h, application rate 200 ppm, mixed population (mobile stages) on bean leaf discs, 8 days after infestation
Experimental: Tetranychus urticae (Two-Spotted Spider Mite):
Bean leaf discs on agar in 24-well microtiter plates were sprayed with aqueous test solutions prepared from 10,000 ppm DMSO stock solutions. After drying the leaf discs were infested with a mite population of mixed ages. The samples were assessed for mortality on mixed population (mobile stages) 8 days after infestation.

[5] = tested on: Heliothis virescens (Tobacco Budworm); assay: Heliothis virescens eggs on artificial diet; conditions: 120 h, read-out: egg or larval mortality
Experimental: Heliothis virescens (Tobacco Budworm):
Eggs (0-24 h old) were placed in 24-well microtiter plates on artificial diet and treated with aqueous test solutions prepared from 10,000 ppm DMSO stock solutions by pipetting. The samples were assessed for egg and larval mortality 5 days after infestation.

[6] = tested on: Thrips tabaci (Onion Thrips); assay: Thrips tabaci sunflower leaf disc spray test; conditions: foliar, 144 h, application rate 200 ppm, mixed ages on sunflower leaf discs, 6 days after infestation
Experimental: Thrips tabaci (Onion Thrips):
Sunflower leaf discs were placed on agar in 24-well microtiter plates and sprayed with aqueous test solutions prepared from 10,000 ppm DMSO stock solutions. After drying the leaf discs were infested with a thrips population of mixed ages. The samples were assessed for mortality 6 days after infestation.

[7] = tested on: Spodoptera littoralis (Egyptian Cotton Leaf Worm); assay: Spodoptera littoralis cotton leaf disc spray test, L1 larvae; conditions: foliar, 72 h
Experimental: Spodoptera littoralis (Egyptian Cotton Leaf Worm)
Cotton leaf discs were placed on agar in 24-well microtiter plates and sprayed with aqueous test solutions prepared from 10,000 ppm DMSO stock solutions. After drying the leaf discs were infested with five L1 larvae. The samples were assessed for mortality 3 days after infestation.

[8] = tested on: Diabrotica balteata, (Corn Root Worm); assay: Diabrotica balteata L2 larvae on sprayed maize sprouts; conditions: 96 h, application rate 200 ppm, 4 days after infestation
Experimental: as §1, with “Maize sprouts, placed on an agar layer in 24-well” for “24-well”, “plates” for “plates with artificial diet”, “spraying.” for “pipetting.”, “4” for “5”

[9] = application rate 200 ppm, eggs on artificial diet, 5 days after infestation

CC(=O)NCSc1ccc(C2=NOC(c3cc(Cl)cc(Cl)c3)(C(F)(F)F)C2)cc1Br (stereo not shown) [Compound A1, N-[[2-bromo-4-[5-(3,5-dichlorophenyl)-5-(trifluoromethyl)-4H-isoxazol-3-yl]phenyl]sulfanylmethyl]acetamide]
≥ 80%: mortality at 200 ppm [1] | mortality at 200 ppm [2] | mortality at 12 ppm [3] | mortality at 200 ppm [4] | mortality at 200 ppm [5] | mortality at 200 ppm [6] | mortality at 200 ppm [7]

O=C(NCSc1ccc(C2=NOC(c3cc(Cl)cc(Cl)c3)(C(F)(F)F)C2)cc1Br)c1ccccc1 (stereo not shown) [Compound A2, N-[[2-bromo-4-[5-(3,5-dichlorophenyl)-5-(trifluoromethyl)-4H-isoxazol-3-yl]phenyl]sulfanylmethyl]benzamide]
≥ 80%: mortality at 200 ppm [2] | mortality at 200 ppm [5]

O=C(NCSc1ccc(C2=NOC(c3cc(Cl)cc(Cl)c3)(C(F)(F)F)C2)cc1Br)C1CC1 (stereo not shown) [Compound A3, N-[[2-bromo-4-[5-(3,5-dichlorophenyl)-5-(trifluoromethyl)-4H-isoxazol-3-yl]phenyl]sulfanylmethyl]cyclopropanecarboxamide]
≥ 80%: mortality at 200 ppm [1] | mortality at 200 ppm [2] | mortality at 12 ppm [3] | mortality at 200 ppm [4] | mortality at 200 ppm [5] | mortality at 200 ppm [6] | mortality at 200 ppm [7]

CC1(C(=O)NCSc2ccc(C3=NOC(c4cc(Cl)cc(Cl)c4)(C(F)(F)F)C3)cc2Br)CC1 (stereo not shown) [Compound A4, N-[[2-bromo-4-[5-(3,5-dichlorophenyl)-5-(trifluoromethyl)-4H-isoxazol-3-yl]phenyl]sulfanylmethyl]-1-methyl-cyclopropanecarboxamide]
≥ 80%: mortality at 200 ppm [5]

CC(=O)NCSc1ccc(C2=CSC(c3cc(Cl)cc(Cl)c3)(C(F)(F)F)C2)cc1Br (stereo not shown) [Compound C1, N-[[2-bromo-4-[2-(3,5-dichlorophenyl)-2-(trifluoromethyl)-3H-thiophen-4-yl]phenyl]sulfanylmethyl]acetamide]
≥ 80%: mortality at 200 ppm ([2]; application rate 200 ppm, L2 larvae on artificial diet, 5 days after infestation, read-out: mortality) | mortality at 200 ppm [8] | mortality at 200 ppm [5, 9] | mortality at 200 ppm ([7]; application rate 200 ppm, L1 larvae on cotton leaf discs, 3 days after infestation, read-out: mortality)

CC(C)C(=O)NCSc1ccc(C2=CSC(c3cc(Cl)cc(Cl)c3)(C(F)(F)F)C2)cc1Br (stereo not shown) [Compound C2, N-[[2-bromo-4-[2-(3,5-dichlorophenyl)-2-(trifluoromethyl)-3H-thiophen-4-yl]phenyl]sulfanylmethyl]-2-methyl-propanamide]
≥ 80%: mortality at 200 ppm [5, 9]
